Experimental data taken from patent US10633363B2, “EPAC1 activators as HIV latency reversal agents (LRA)” (The Board of Regents of The University of Texas System, priority 2017, dated 2020).
Entries after “also recorded” stand apart in the source; their conditions may differ.

What was measured:
latent HIV in NNTC PBMC [1] = test: Activation of latent HIV gene expression (3'LTR PCR) in PBMC of ART-suppressed, aviremic HIV-infected subjects (NNTC); format: cell-based; details: for HIV gene expression, PCR quantification of HIV 3'LTR vs NC: fresh and frozen PBMC of one NNTC subject, 48 hours, ZL0568 10 M (so in the source)
Description: FIG. 6A. Relative HIV gene expression in one representative PBMC following different treatments. Fresh and cryopreserved PBMC of the same donor were compared.
FIG. 6C. Relative HIV gene expression in multiple BMCs (n=8) after treatments were summarized.
The ability of compound ZL0568 to activate latent HIV in PBMC of ART-suppressed, aviremic HIV-infected subjects was tested. PBMC samples were obtained from the well-established HIV infection cohort from the National NeuroAIDS Tissue Consortium (NNTC) with (66, 67). First, feasibility of using NNTC's cryopreserved PBMC in the experiments was explored by comparing the results from fresh and frozen PBMC of the same subject. […] Thus, fresh and cryopreserved PBMC from a representative NNTC subject (ID: 8400337177) were stimulated with compound ZL0568 (10 M) as compared to stimulation with mock (NC) or positive controls (JQ1, Prostratin and PMA; concentrations of positive controls were used as previously reported (21, 25)).
(§1) HIV release in the supernatants of PBMC at 72 hours after treatments using the 1G5 luciferase reporter assay (68, 69) was measured and very similar results were found (FIG. 6B). We noted that although the levels of HIV activation in frozen PBMC were generally lower than those in fresh PBMC, the differences among different treatments were consistently detected (FIG. 6A-B), supporting the feasibility of using NNTC's cryopreserved PBMCs in our system.
(§2) Compound ZL0568 was further tested in multiple NNTC's donor PBMCs (n=8) for HIV gene activation (FIG. 6C) as well as viral production (FIG. 6D).

[2] = test system: latent HIV in J-lat cells; test: Activation of GFP expression (latent HIV reactivation) in J-lat cells; format: cell-based; details: for Ability to stimulate GFP expression in J-lat cells compared with ZL0568 (SAR): 10 μM; for GFP expression in J-lat cells: flow cytometry, 10 M (so in the source)
Description: FIG. 2A. Assessment of compound ZL0568, an exemplary embodiment of the invention, for the ability to stimulate GFP expression in J-lat cells. GFP fluorescence intensity was measured by microplate reader.
FIG. 2C. Dose-dependent activation of GFP expression in J-lat cells by ZL0568 measured by flow cytometry.
Dose-dependent activation of GFP expression by ZL0568 in J-lat cells was confirmed by flow cytometric analysis with an EC50 value of 8 μM (in DMSO) (FIG. 2C-D). […] See e.g., FIG. 8A-E.
Specificity and structure-activity relationship (SAR) for ZL0568 was determined by synthesizing and testing four analogues (ZL0696, ZL0697, ZL0699 and ZL06100; 10 μM).

[3] = test system: EPAC (EPAC1) in J-lat cells; test: 007-AM-stimulated GFP expression in J-lat cells after CRISPR/Cas9 knock out of EPAC; format: cell-based
Source text: FIG. 3F. Functional involvement of EPAC in 007-AM stimulated HIV reactivation in J-lat cells.

J-lat cells = test: Cellular toxicity on J-lat cells (% viable cells); format: cell-based; details: J-lat cells; 40 μM
Description: (§3) FIG. 8A. Cellular toxicity of ZL0568 on J-lat cells. Toxicity was measured as % viable cells at Day 1, 2 and 3 after stimulation at various concentrations.
(§4) Cellular toxicity profile of ZL0568 and its effects on human T cells was evaluated. […] This possibility was precluded since apoptosis was recently shown to be associated with HIV reactivation (68).

[4] = Cellular toxicity on J-lat cells (% viable cells); format: cell-based; details: stated for J-lat and human PBMC together; cell type not specified; read-out: cytotoxicity CC50
Description: as §3, §4

[5] = test system: latent HIV in human monocytic U1 cells; test: Activation of latent HIV in U1 cells, intracellular HIV p24 staining by flow cytometry; format: cell-based; details: various concentrations, 48 hours
Description: FIG. 4. Activation of latent HIV by compound ZL0568 in U1 cells. U1 cells were stimulated with various concentrations of compound ZL0568 as indicated or mock-stimulated (NC) for 48 hours. Reactivation of latent HIV were examined based on intracellular HIV p24 staining (p24%) by flow cytometry.
Whether or not compound ZL0568, an exemplary embodiment of the invention, can activate latent HIV in human monocytic U1 cells was evaluated. In particular, U1 cells were stimulated with various concentrations of ZL0568 or mock DMSO (NC). Reactivation of latent HIV was measured based on intracellular HIV p24 staining by flow cytometry.

latent HIV in NNTC PBMC [6] = test: HIV release in supernatants of treated PBMC, 1G5 luciferase reporter assay; format: cell-based; details: multiple NNTC donor PBMCs (n=8), p<0.01
Description: FIG. 6B. Relative viral release in one representative PBMC following different treatments. Fresh and cryopreserved PBMC of the same donor were compared.
FIG. 6D. HIV release in supernatants of treated PBMC was measured by 1G5 reporter luciferase assay and compared between ZL0568 and NC.
as §1, §2

T cells [7] = test: T-cell activation marker expression (CD25, CD38, CD69, HLA-DR) by flow cytometry; format: cell-based, human; details: 10 μM
Description: FIG. 8D. T-cell activation by ZL0568. Activation marker expression (CD25, CD38, CD69, HLA-DR) on T-cells was measured flow cytometry and compared between ZL0568 (10 uM) and NC.
as §4

human PBMC = test: Cellular toxicity on human PBMC (% viable cells); format: cell-based; details: 40 μM
Description: FIG. 8B. Cellular toxicity of ZL0568 on human PBMC. Toxicity was measured as % viable cells at Day 1, 2 and 3 after stimulation at various concentrations.
as §4

T cells [8] = test: Caspase-3 and Caspase-1 expression in T cells; format: cell-based, human; details: 24 hours, vs NC
Description: FIG. 8C. Caspase-3 and Caspase-1 expression in T cells with ZL0568 stimulation as compared to NC (24 hours).
as §4

T cells [9] = test: Expression of cytokines in T cells by intracellular cytokine staining; format: cell-based, human; details: 10 uM, 24 hours
Description: FIG. 8E. Expression of cytokines (% IFN-r, IL-2, MIP-1b or IL-17) in T cells between ZL0568 treatment (10 uM) and NC (24 hours), measured by intracellular cytokine staining.
as §4

HIV in RV21 PBMC = test: Activation of HIV gene expression in PBMC of ART-naive, viremic HIV-infected individuals (RV21); format: cell-based
Description: FIG. 5A Activation of HIV gene expression (3′ LTR) in a representative RV21 PBMC on Day 1, 2 and 5 after stimulation. The data are shown as fold change to NC.
A significant limitation for some existing LRAs (e.g. HDACi & BETi) is related to their limited efficacy to activate latent HIV in primary cells (16, 17, 19-21). Whether or not our compound ZL0568 can stimulate HIV gene expression in human PBMC from ART-naïve, viremic HIV-infected individuals was assessed using cells from the RV21, an ART-naïve, HIV infection cohort at the Military HIV Research Program (MHRP). See e.g., Liu F, et al. Sequential Dysfunction and Progressive Depletion of Candida albicans-Specific CD4 T Cell Response in HIV-1 Infection. PLoS Pathog 12(6):e1005663 (2016). A widely-used method to detect HIV transcription in cells from infected individuals involves measurement of RNAs containing HIV gag sequences. […] See e.g., Bullen C K, Laird G M, Durand C M, Siliciano J D, & Siliciano R F, New ex vivo approaches distinguish effective and ineffective single agents for reversing HIV-1 latency in vivo. Nat Med 20(4):425-429 (2014).
Therefore, in addition to Gag, a new PCR assay, established by the Siliciano group, specific for intracellular HIV mRNA using a primer/probe set that detects the 3′-sequence common to all correctly terminated HIV RNAs was employed. […]

CCCCCCCCCCCCCC(=O)O[C@@H]1[C@@H](C)[C@@]2(O)[C@@H](C=C(CO)C[C@]3(O)C(=O)C(C)=C[C@@H]23)[C@@H]2C(C)(C)[C@]12OC(C)=O [PMA]
HIV gene expression, PCR quantification of HIV 3'LTR vs NC (latent HIV in NNTC PBMC [1]): markedly activated HIV gene expression

CC(=O)O[C@@]12C[C@@H](C)[C@@]3(O)[C@@H](C=C(CO)C[C@]4(O)C(=O)C(C)=C[C@@H]34)[C@@H]1C2(C)C [Prostratin]
HIV gene expression, PCR quantification of HIV 3'LTR vs NC (latent HIV in NNTC PBMC [1]): markedly activated HIV gene expression

Cn1cc(C(=O)/C(C#N)=N/Nc2cc(Cl)cc(Cl)c2)c2ccccc21 [ZL0699, (E)-N-(3,5-Dichlorophenyl)-2-(1-methyl-1H-indol-3-yl)-2-oxoacetohydrazonoyl Cyanide]
Ability to stimulate GFP expression in J-lat cells compared with ZL0568 (SAR) [2]: substantially abrogated the ability to stimulate GFP expression

CC(C)(C)c1cc(C(=O)/C(C#N)=N/Nc2cccc(Cl)c2)no1 [ESI-09, reference compound]
GFP expression / HIV reactivation in J-lat cells (in words) [2]: no HIV activation effect; also recorded: no GFP-activating effect

Cn1cc(C(=O)/C(C#N)=N/Nc2cccc(Cl)c2)c2ccccc21 [ZL0697, (E)-N-(3-Chlorophenyl)-2-(1-methyl-1H-indol-3-yl)-2-oxoacetohydrazonoyl Cyanide]
Ability to stimulate GFP expression in J-lat cells compared with ZL0568 (SAR) [2]: substantially abrogated the ability to stimulate GFP expression

Cc1sc2c(c1C)C(c1ccc(Cl)cc1)=N[C@@H](CC(=O)OC(C)(C)C)c1nnc(C)n1-2 [JQ1, reference compound]
GFP expression in J-lat cells [2]: 8.97% | HIV gene expression, PCR quantification of HIV 3'LTR vs NC (latent HIV in NNTC PBMC [1]): failed to do so

CO[C@@H]1[C@@H]2OP(=O)(OCOC(C)=O)OC[C@H]2O[C@H]1n1c(Sc2ccc(Cl)cc2)nc2c(N)ncnc21 (stereo partly shown) [007-AM, reference compound]
GFP expression / HIV reactivation in J-lat cells (in words) [2]: significant HIV reactivation | GFP expression in J-lat cells [2]: 12.8% | 007-AM-stimulated GFP expression after ablation of EPAC [3]: marked decrease

Cn1cc(C(=O)/C(C#N)=N/Nc2ccc3c(c2)CCC(=O)N3)c2ccccc21 [ZL06100, (E)-2-(1-Methyl-1H-indol-3-yl)-2-oxo-N-(2-oxo-1,2,3,4-tetrahydroquinolin-6-yl)acetohydrazonoyl Cyanide]
Ability to stimulate GFP expression in J-lat cells compared with ZL0568 (SAR) [2]: still maintained some potency

Cn1cc(C(=O)/C(C#N)=N/Nc2ccc(Cl)c(C(F)(F)F)c2)c2ccccc21 [ZL0568, (E)-N-(4-chloro-3-(trifluoromethyl)phenyl)-2-(1-methyl-1H-indol-3-yl)-2-oxoacetohydrazonoyl Cyanide]
Cellular toxicity, % viable cells (J-lat cells): limited cellular toxicity | CC50 [4]: 75 µM | EC50 ([2]; Human immunodeficiency virus 1, flow cytometric analysis, in DMSO, read-out: EC50, dose-dependent activation of GFP expression in J-lat cells): 8 µM | GFP expression / HIV reactivation in J-lat cells (in words) [2]: significant GFP expression | GFP expression in J-lat cells [2]: 21.7% | HIV reactivation in U1 cells based on p24 expression [5]: could also stimulate HIV reactivation in U1 cells in a dose-dependent manner | Viral production vs NC (latent HIV in NNTC PBMC [6]): enhanced HIV activation | CD69 and HLA-DR expression (T cells [7]): no significant increase | T-cell activation, expression of CD25 and CD38 (T cells [7]; p<0.001): modest level of T-cell activation | Cellular toxicity, % viable cells (human PBMC): limited cellular toxicity | HIV gene expression, PCR quantification of HIV 3'LTR vs NC (latent HIV in NNTC PBMC [1]): significant HIV gene expression | HIV gene activation vs NC (latent HIV in NNTC PBMC [1]; multiple NNTC donor PBMCs (n=8), p<0.01): enhanced HIV activation | Induction of cell death signals (caspase-3/caspase-1) (T cells [8]): no preferential induction of cell death signals | Expression of inflammatory cytokines in T cells (IFN-γ, IL-2, MIP-1b, IL-17) (T cells [9]): did not induce expression of inflammatory cytokines | HIV gene expression (3'LTR and Gag together) vs NC (HIV in RV21 PBMC; ART-naive RV21 PBMCs, Day 2, p<0.005): could significantly activate HIV gene expression | HIV 3'-LTR gene expression, time course (HIV in RV21 PBMC; representative RV21 PBMC, 10 M (so in the source), Day 1, 2 and 5): induced HIV 3′-TLR expression on Day 2 after stimulation, which became less significant on Day 5

Cn1cc(C(=O)/C(C#N)=N/Nc2ccccc2Cl)c2ccccc21 [ZL0696, (E)-N-(2-Chlorophenyl)-2-(1-methyl-1H-indol-3-yl)-2-oxoacetohydrazonoyl Cyanide]
Ability to stimulate GFP expression in J-lat cells compared with ZL0568 (SAR) [2]: substantially abrogated the ability to stimulate GFP expression
